Experiments:
Type in all cases: biochemical
PfDdi1 [1] = molecular target: T1, PfDdi1 (Plasmodium falciparum, UniProt Q8IM03); test: inhibition of FRET peptide cleavage
T1 construct: gene PF3D7_1409300; full length (382 aa), His-tagged (pET-28b NcoI/XhoI), E. coli Rosetta (DE3), Ni-NTA; ~44 kDa plus processed ~34 kDa fragment
T1 sequence (Q8IM03 1-382): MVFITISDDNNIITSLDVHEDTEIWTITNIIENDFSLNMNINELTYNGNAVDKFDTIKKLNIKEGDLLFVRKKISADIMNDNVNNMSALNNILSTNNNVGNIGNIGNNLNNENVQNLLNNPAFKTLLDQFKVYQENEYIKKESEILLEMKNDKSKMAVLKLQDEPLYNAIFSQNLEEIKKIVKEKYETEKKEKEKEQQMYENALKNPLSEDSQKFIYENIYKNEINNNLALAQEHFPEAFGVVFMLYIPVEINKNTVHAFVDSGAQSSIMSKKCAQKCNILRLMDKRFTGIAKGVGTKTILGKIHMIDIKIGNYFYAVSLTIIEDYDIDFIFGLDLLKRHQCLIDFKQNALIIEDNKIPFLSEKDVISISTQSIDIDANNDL

PfDdi1 [2] = molecular target: T1, PfDdi1; test: inhibition of FRET peptide, AMC peptide and K48 polyubiquitin cleavage; conditions: 10 min preincubation, sodium acetate pH 5.0, 37 °C, 2.0 μM enzyme
PfDdi1 [3] = molecular target: T1, PfDdi1; test: inhibition of fluorogenic peptide cleavage

C[C@@H]1CC[C@H]2[C@@H](C)C(=O)O[C@@H]3O[C@@]4(C)CC[C@@H]1[C@]32OO4 [ART, artemisinin]
inhibition at 1 µM (PfDdi1 [1]): 71.4%

C[C@@H]1CC[C@H]2[C@@H](C)C(O)O[C@@H]3O[C@@]4(C)CC[C@@H]1[C@]32OO4 (stereo partly drawn) [DHA, Dihydroartemisinin]
% inhibition at 1 μM (PfDdi1 [2]): artemisinin and its derivative, DHA, significantly inhibited the ability of PfDdi1 to degrade the polyubiquitinated

Cc1cccc(C)c1OCC(=O)N[C@@H](Cc1ccccc1)[C@@H](O)C[C@H](Cc1ccccc1)NC(=O)[C@H](C(C)C)N1CCCNC1=O [LPV, Lopinavir]
inhibition at 50 µM (PfDdi1 [3]): ~23.5%
